Legend:
[1] = In vivo pharmacokinetic study, single oral dose; design: species or system CD-1 mice
Protocol: Female CD-1 mice (Harlan Interfauna Iberica) at 8 weeks of age were used for single oral dose pharmacokinetic studies (n=2). Dosing solutions were prepared in 20% (v:v) Captisol in water, at a target dose of 50 mg kg^−1 (dose volume of 20 ml kg^−1). After oral dosing, blood samples (25 μl) were collected at 30 min, 1 h, 6 h and 8 h post dose for TCMDC-123767. All the blood samples were diluted with 25 μl of an aqueous solution of saponine 1% (w:v), and stored at −80 °C until analysis. Mice blood samples were analysed for each compound using a method upon protein precipitation followed by LC-MS/MS analysis (Applied Biosystems). Data analysis of the concentration time profiles was performed by noncompartmental methods by using WinNonLin Phoenix Version 6.3.

[2] = Intrinsic clearance assay; assay type: in vitro ADME; settings: mouse liver microsomes, 0.5 μM
Protocol: Intrinsic clearance (CLi) values were determined in mouse liver microsomes (M1000, XenoTech). Test compounds (final concentration 0.5 μM) were incubated at 37 °C for 45 min in 50 mM potassium phosphate buffer (pH 7.4) containing 0.5 mg microsomal protein per ml. The reaction was started by addition of cofactor NADPH ([…], Sigma) at 1 mM final concentration. The final concentration of organic solvent (DMSO) was limited to 0.25% of the final volume. At 0, 5, 15, 30, and 45 min, an aliquot (100 μl) was taken, quenched with acetonitrile containing an appropriate internal standard, and analysed by HPLC-MS/MS (Applied Biosystems). CLi was determined from the first-order elimination constant by nonlinear regression, corrected for the volume of the incubation and assuming […] mouse protein per g liver. Values for CLi were expressed as ml min^-1 per g liver.

FC(F)(F)c1cnc(Sc2nnc(-c3ccncc3)o2)c(Cl)c1 [TCMDC-123767]
elimination in vivo ([1]; oral 50 mg kg^−1, mouse): rapidly eliminated
exposure levels in blood ([1]; oral 50 mg kg^−1, mouse): very low
last detected in blood above the lower limit of quantification (time post-administration) ([1]; oral 50 mg kg^−1, mouse blood, LLOQ 2.5 ng ml^−1): 1 h
in vitro microsome clearance [2]: 7.9 ml min^−1 per g liver
